Laboratory results from patent US7507729B2, “Substituted imidazo-[1,5-a][1,2,4]triazolo[1,5-d][1,4] benzodiazepine derivatives” (priority 2005, dated 2009).
Where a name gives a salt, the structure may show the parent alone. Read-outs that look alike come from different tables or passages of the source.

Experiments:
[1] = target: T1, GABA A receptor α1β3γ2 (hα1) (Homo sapiens, UniProt P14867+P18507); test: [3H]flumazenil competition binding, membranes of HEK293 cells expressing human GABA A α1β3γ2
T1 construct: expressed in transfected cells; host or cells: HEK293, transiently transfected; membranes
Description: (§1) The affinity of compounds at GABA A receptor subtypes was measured by competition for [^3H]flumazenil (85 Ci/mmol; Roche) binding to HEK293 cells expressing rat (stably transfected) or human (transiently transfected) receptors of composition α1β3γ2, α2β3γ2, α3β3γ2 and α5β3γ2.
(§2) Cell pellets were suspended in Krebs-tris buffer (4.8 mM KCl, 1.2 mM CaCl2, 1.2 mM MgCl2, 120 mM NaCl, 15 mM Tris; pH 7.5; binding assay buffer), homogenized by polytron for ca. 20 sec on ice and centrifuged for 60 min at 4° C. (50000 g; Sorvall, rotor: SM24=20000 rpm). The cell pellets were resuspended in Krebs-tris buffer and homogenized by polytron for ca. 15 sec on ice. Protein was measured (Bradford method, Bio-Rad) and aliquots of 1 mL were prepared and stored at −80° C.
(§3) Radioligand binding assays were carried out in a volume of 200 μL (96-well plates) which contained 100 μL of cell membranes, [^3H]flumazenil at a concentration of 1 nM for α1, α2, α3 subunits and 0.5 nM for α5 subunits and the test compound in the range of 10^−10-3×10^−6 M.
(§4) Nonspecific binding was defined by 10^−5 M diazepam and typically represented less than 5% of the total binding. Assays were incubated to equilibrium for 1 hour at 4° C. and harvested onto GF/C uni-filters (Packard) by filtration using a Packard harvester and washing with ice-cold wash buffer (50 mM Tris; pH 7.5). After drying, filter-retained radioactivity was detected by liquid scintillation counting. Ki values were calculated using Excel-Fit (Microsoft) and are the means of two determinations.

[2] = target: T2, GABA A receptor α5β3γ2 (hα5) (Homo sapiens, UniProt P18507+P31644); test: [3H]flumazenil competition binding, membranes of HEK293 cells expressing human GABA A α5β3γ2
T2 construct: expressed in transfected cells; host or cells: HEK293, transiently transfected; membranes
Description: as §1, §2, §3, §4

[3] = [3H]flumazenil 1 nM, 1 hour at 4° C., means of two determinations, read-out: Ki[nM] hα1
[4] = [3H]flumazenil 0.5 nM, 1 hour at 4° C., means of two determinations, read-out: Ki[nM] hα5

Structure (SMILES)	Ki [1] [nM]	Ki [1, 3] [nM]	also measured
O=C(Cc1nc2n(n1)Cc1c(Cl)ncn1-c1ccc(Br)cc1-2)NCCO [Example 65, 3-Bromo-10-chloro-6-[(2-hydroxy-ethylcarbamoyl)-methyl]-9H-imidazo[1,5-a][1,2,4]triazolo[1,5-d][1,4]benzodiazepine]	149		
O=C1OCCN1Cc1nc2n(n1)Cc1c(Cl)ncn1-c1ccc(Cl)cc1-2 [Example 316, 3,10-Dichloro-6-(2-oxo-oxazolidin-3-ylmethyl)-9H-imidazo[1,5-a][1,2,4]triazolo[1,5-d][1,4]benzodiazepine]		116	Ki [2]: 0.9 nM
Clc1ccc2c(c1)-c1nc(Cn3cncn3)nn1Cc1c(Cl)ncn1-2 [Example 12, 3,10-Dichloro-6-[1,2,4]triazol-1-ylmethyl-9H-imidazo[1,5-a][1,2,4]triazolo[1,5-d][1,4]benzodiazepine]	51.8		Ki [2, 4]: 0.8 nM
Cc1ncn2c1Cn1nc(Cc3ccn[nH]3)nc1-c1ccccc1-2 [Example 380, 10-Methyl-6-(2H-pyrazol-3-ylmethyl)-9H-imidazo[1,5-a][1,2,4]triazolo[1,5-d][1,4]benzodiazepine hydrochloride (1:1)]	56.6		
Cc1ncn2c1Cn1nc(Cn3ccccc3=O)nc1-c1ccccc1-2 [Example 378, 10-Methyl-6-(2-oxo-2H-pyridin-1-ylmethyl)-9H-imidazo[1,5-a][1,2,4]triazolo[1,5-d][1,4]benzodiazepine]	42.1		Ki [2, 4]: 0.6 nM
COCC1CN(Cc2nc3n(n2)Cc2c(Cl)ncn2-c2ccc(Br)cc2-3)C(=O)O1 (centres unmarked) [Example 83, 3-Bromo-10-chloro-6-(5-methoxymethyl-2-oxo-oxazolidin-3-ylmethyl)-9H-imidazo[1,5-a][1,2,4]triazolo[1,5-d][1,4]benzodiazepine]		113	
Cc1cc(Cc2nc3n(n2)Cc2c(C)ncn2-c2ccc(Cl)cc2-3)ccn1 [Example 191, 3-Chloro-10-methyl-6-(2-methyl-pyridin-4-ylmethyl)-9H-imidazo[1,5-a][1,2,4]triazolo[1,5-d][1,4]benzodiazepine]		266	
Clc1ccc2c(c1)-c1nc(Cn3cc4ccccc4n3)nn1Cc1c(Cl)ncn1-2 [Example 26, 3,10-Dichloro-6-indazol-2-ylmethyl-9H-imidazo[1,5-a][1,2,4]triazolo[1,5-d][1,4]benzodiazepine]		111	
Cc1ncn2c1Cn1nc(Cn3ccnn3)nc1-c1cc(Cl)ccc1-2 [Example 364, 3-Chloro-10-methyl-6-[1,2,3]triazol-1-ylmethyl-9H-imidazo[1,5-a][1,2,4]triazolo[1,5-d][1,4]benzodiazepine hydrochloride (1:1)]		134	
Clc1ccc2c(c1)-c1nc(Cn3nc4ccccc4n3)nn1Cc1c(Cl)ncn1-2 [Example 21, 6-Benzotriazol-2-ylmethyl-3,10-dichloro-9H-imidazo[1,5-a][1,2,4]triazolo[1,5-d][1,4]benzodiazepine]		133	
Cc1ncn2c1Cn1nc(Cn3ccnn3)nc1-c1cc(Br)ccc1-2 [Example 162, 3-Bromo-10-methyl-6-[1,2,3]triazol-1-ylmethyl-9H-imidazo[1,5-a][1,2,4]triazolo[1,5-d][1,4]benzodiazepine hydrochloride (1:1)]		152	
Cc1ccc(Cc2nc3n(n2)Cc2c(C)ncn2-c2ccc(Br)cc2-3)cn1 [Example 124, 3-Bromo-10-methyl-6-(6-methyl-pyridin-3-ylmethyl)-9H-imidazo[1,5-a][1,2,4]triazolo[1,5-d][1,4]benzodiazepine]		219	
COc1ccccc1Cc1nc2n(n1)Cc1c(C)ncn1-c1ccc(Br)cc1-2 [Example 168, 3-Bromo-6-(2-methoxy-benzyl)-10-methyl-9H-imidazo[1,5-a][1,2,4]triazolo[1,5-d][1,4]benzodiazepine hydrochloride (1:1)]	63.4		
O=C1OCCN1Cc1nc2n(n1)Cc1c(Cl)ncn1-c1ccc(Br)cc1-2 [Example 50]	85.7		
